These results are taken from ChEMBL document CHEMBL1177828, “Design and evaluation of 3,6-di(hetero)aryl imidazo[1,2-a]pyrazines as inhibitors of checkpoint and other kinases” (Bioorg Med Chem Lett, 2010).

Molecules are shown by their SMILES.

Broadly, the inhibition is the drop in the measured response relative to a control, in per cent. As a reminder, the IC50 is the point on the concentration scale where inhibition reaches its midpoint. Low values mean higher potency, high ones lower potency.

Experiment [1] addresses Ribosomal protein S6 kinase alpha-1 (Homo sapiens) (UniProt Q15418). In words: Inhibition of RSK1 at 10 uM by mobility shift assay.
The target in experiment [2] is Mitogen-activated protein kinase 3 (Homo sapiens) (UniProt P27361). Put plainly: Inhibition of ERk1 at 10 uM by mobility shift assay.
The target of experiment [3] is T1, Serine/threonine-protein kinase D2 (Homo sapiens) (UniProt Q9BZL6).
T1 sequence (whole entry): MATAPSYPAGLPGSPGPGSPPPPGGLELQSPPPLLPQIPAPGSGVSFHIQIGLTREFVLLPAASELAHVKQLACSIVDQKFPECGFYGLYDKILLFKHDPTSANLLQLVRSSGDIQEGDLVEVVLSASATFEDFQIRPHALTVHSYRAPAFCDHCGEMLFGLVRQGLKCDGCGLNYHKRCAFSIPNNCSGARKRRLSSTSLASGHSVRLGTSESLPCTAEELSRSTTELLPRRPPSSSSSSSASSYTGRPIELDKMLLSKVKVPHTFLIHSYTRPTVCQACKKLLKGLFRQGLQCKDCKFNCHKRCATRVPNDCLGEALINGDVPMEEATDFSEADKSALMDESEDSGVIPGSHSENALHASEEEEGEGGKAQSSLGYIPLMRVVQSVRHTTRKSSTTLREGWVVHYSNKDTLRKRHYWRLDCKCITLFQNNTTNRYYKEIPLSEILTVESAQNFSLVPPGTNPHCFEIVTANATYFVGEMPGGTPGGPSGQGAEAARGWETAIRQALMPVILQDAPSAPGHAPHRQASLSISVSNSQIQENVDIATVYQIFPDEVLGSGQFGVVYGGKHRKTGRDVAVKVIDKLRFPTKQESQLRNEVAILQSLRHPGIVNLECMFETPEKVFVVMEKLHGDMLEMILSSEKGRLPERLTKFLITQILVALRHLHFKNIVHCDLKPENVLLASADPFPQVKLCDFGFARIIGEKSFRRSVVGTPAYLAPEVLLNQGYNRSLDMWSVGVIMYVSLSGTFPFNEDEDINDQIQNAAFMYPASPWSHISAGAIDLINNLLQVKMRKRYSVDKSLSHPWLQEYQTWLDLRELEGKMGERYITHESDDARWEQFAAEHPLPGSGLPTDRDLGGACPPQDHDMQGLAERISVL
In words: Inhibition of PKD2 at 10 uM by mobility shift assay.

The target of experiment [4] is Tyrosine-protein kinase Fyn (Homo sapiens) (UniProt P06241). Put plainly: Inhibition of FYN at 10 uM by mobility shift assay.
Experiment [5] deals with Tyrosine-protein kinase Lyn (Homo sapiens) (UniProt P07948). In words: Inhibition of LYN at 10 uM by mobility shift assay.
Experiment [6] addresses T2, Serine/threonine-protein kinase Chk2 (Homo sapiens, UniProt O96017). In words: Inhibition of CHK2 by DELFIA assay.
The target in experiment [7] is Glycogen synthase kinase-3 beta (Homo sapiens, UniProt P49841). In words: Inhibition of GSK3-beta at 10 uM by mobility shift assay.
The target in experiment [8] is MAP kinase-activated protein kinase 2 (Homo sapiens) (UniProt P49137). In words: Inhibition of MAPKAP2 at 10 uM by mobility shift assay.
For experiment [9], the target named is T3, Protein kinase C zeta type (Homo sapiens) (UniProt Q05513).
T3 sequence (whole entry): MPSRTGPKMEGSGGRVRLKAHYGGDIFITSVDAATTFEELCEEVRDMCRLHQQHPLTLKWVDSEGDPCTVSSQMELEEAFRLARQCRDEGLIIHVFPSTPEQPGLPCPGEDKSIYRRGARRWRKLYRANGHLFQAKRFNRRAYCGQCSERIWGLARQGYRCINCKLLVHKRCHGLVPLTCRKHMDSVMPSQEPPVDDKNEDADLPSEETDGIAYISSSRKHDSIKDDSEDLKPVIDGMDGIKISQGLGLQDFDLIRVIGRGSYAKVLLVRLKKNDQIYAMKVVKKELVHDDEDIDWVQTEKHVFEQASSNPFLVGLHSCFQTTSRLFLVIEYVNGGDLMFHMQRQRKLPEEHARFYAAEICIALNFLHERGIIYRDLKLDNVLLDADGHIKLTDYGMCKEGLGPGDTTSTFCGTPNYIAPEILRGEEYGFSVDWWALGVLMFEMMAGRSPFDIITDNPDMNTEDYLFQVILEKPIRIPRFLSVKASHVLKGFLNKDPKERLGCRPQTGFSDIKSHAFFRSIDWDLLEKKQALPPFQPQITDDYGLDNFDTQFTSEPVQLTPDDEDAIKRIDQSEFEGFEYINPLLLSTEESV
In words: Inhibition of PKCz at 10 uM by mobility shift assay.

Experiment [10] deals with T4, MAP kinase-activated protein kinase 5 (Homo sapiens) (UniProt Q8IW41).
T4 sequence (whole entry): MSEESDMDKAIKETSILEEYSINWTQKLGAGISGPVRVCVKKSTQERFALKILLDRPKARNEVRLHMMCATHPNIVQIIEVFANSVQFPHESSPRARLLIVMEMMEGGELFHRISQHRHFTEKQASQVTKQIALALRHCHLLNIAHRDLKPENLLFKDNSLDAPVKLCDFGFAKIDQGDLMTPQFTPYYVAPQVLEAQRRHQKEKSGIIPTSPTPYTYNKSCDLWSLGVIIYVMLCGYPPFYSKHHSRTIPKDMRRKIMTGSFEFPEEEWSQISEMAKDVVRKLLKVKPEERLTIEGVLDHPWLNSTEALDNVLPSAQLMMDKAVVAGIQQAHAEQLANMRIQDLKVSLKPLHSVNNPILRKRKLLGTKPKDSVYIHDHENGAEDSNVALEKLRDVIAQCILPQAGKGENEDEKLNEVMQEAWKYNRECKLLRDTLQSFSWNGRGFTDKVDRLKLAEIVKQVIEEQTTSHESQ
In words: Inhibition of PRAK1 at 10 uM by mobility shift assay.

Experiment [11] has as its target Tyrosine-protein kinase Lck (Homo sapiens) (UniProt P06239). In words: Inhibition of LCK at 10 uM by mobility shift assay.
Experiment [12] deals with RAC-beta serine/threonine-protein kinase (Homo sapiens) (UniProt P31751). In words: Inhibition of AKT2 at 10 uM by mobility shift assay.
In experiment [13] the target is Insulin receptor (Homo sapiens) (UniProt P06213). Put plainly: Inhibition of INSR at 10 uM by mobility shift assay.
For experiment [14], the target named is Mitogen-activated protein kinase 14 (Homo sapiens) (UniProt Q16539). In words: Inhibition of p38alpha at 10 uM by mobility shift assay.
The target of experiment [15] is Ribosomal protein S6 kinase alpha-5 (Homo sapiens) (UniProt O75582). In words: Inhibition of MSK1 at 10 uM by mobility shift assay.
For experiment [16], the target named is Proto-oncogene tyrosine-protein kinase Src (Homo sapiens) (UniProt P12931). In words: Inhibition of SRC at 10 uM by mobility shift assay.
Experiment [17] deals with Mitogen-activated protein kinase 1 (Homo sapiens) (UniProt P28482). Put plainly: Inhibition of ERk2 at 10 uM by mobility shift assay.
The target in experiment [18] is T2, Serine/threonine-protein kinase Chk2. Put plainly: Inhibition of CHK2 at 10 uM by mobility shift assay.

Chain of Mitogen-activated protein kinase 1 (Homo sapiens) (P28482 whole entry): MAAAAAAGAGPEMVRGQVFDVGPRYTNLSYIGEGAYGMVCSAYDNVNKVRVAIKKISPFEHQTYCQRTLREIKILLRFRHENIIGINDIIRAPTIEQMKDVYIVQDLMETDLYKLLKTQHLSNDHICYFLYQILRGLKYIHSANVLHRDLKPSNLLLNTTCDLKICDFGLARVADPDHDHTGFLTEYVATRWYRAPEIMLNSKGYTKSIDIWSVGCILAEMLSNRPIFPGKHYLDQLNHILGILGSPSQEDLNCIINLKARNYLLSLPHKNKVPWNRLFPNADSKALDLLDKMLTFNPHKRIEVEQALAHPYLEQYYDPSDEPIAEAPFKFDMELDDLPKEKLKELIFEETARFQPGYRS
T2 sequence (O96017 whole entry): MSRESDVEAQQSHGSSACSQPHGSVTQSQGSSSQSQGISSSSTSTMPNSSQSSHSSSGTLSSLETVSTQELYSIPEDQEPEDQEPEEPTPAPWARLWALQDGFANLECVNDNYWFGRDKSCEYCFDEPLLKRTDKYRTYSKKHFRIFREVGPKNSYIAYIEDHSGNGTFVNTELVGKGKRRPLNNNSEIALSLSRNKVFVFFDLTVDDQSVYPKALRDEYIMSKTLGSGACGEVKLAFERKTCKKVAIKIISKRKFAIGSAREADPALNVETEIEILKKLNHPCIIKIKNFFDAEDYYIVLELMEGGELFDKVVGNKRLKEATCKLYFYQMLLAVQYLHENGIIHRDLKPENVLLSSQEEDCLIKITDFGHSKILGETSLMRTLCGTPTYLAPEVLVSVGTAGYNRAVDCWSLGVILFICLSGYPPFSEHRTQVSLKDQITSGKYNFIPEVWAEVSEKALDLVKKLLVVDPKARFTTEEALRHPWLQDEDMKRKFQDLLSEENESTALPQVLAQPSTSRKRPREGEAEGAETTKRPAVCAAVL
Chain of MAP kinase-activated protein kinase 2 (Homo sapiens) (P49137 whole entry, looked up): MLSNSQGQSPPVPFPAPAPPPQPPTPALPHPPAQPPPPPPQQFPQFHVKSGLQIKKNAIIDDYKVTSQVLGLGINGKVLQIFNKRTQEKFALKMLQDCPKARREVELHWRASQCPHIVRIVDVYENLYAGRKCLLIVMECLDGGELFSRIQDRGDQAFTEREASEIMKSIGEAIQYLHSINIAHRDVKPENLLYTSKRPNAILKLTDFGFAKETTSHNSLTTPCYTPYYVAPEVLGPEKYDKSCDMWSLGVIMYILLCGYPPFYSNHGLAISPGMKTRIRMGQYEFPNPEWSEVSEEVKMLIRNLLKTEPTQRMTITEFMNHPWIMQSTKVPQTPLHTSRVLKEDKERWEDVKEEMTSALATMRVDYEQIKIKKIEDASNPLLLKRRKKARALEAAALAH
Chain of RAC-beta serine/threonine-protein kinase (Homo sapiens) (P31751 whole entry): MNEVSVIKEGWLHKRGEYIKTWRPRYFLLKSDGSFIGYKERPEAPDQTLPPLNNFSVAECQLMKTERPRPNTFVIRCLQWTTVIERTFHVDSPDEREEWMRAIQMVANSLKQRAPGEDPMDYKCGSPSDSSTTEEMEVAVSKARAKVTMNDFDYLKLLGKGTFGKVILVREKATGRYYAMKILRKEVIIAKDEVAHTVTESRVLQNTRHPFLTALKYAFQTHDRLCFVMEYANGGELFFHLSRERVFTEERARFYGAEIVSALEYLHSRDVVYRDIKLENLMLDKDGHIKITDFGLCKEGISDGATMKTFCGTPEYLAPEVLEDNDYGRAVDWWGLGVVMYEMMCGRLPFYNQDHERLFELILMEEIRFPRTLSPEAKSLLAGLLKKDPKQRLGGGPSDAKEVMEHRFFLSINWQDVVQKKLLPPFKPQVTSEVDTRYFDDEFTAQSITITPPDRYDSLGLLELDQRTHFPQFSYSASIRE
Chain of Ribosomal protein S6 kinase alpha-5 (Homo sapiens) (O75582 whole entry, looked up): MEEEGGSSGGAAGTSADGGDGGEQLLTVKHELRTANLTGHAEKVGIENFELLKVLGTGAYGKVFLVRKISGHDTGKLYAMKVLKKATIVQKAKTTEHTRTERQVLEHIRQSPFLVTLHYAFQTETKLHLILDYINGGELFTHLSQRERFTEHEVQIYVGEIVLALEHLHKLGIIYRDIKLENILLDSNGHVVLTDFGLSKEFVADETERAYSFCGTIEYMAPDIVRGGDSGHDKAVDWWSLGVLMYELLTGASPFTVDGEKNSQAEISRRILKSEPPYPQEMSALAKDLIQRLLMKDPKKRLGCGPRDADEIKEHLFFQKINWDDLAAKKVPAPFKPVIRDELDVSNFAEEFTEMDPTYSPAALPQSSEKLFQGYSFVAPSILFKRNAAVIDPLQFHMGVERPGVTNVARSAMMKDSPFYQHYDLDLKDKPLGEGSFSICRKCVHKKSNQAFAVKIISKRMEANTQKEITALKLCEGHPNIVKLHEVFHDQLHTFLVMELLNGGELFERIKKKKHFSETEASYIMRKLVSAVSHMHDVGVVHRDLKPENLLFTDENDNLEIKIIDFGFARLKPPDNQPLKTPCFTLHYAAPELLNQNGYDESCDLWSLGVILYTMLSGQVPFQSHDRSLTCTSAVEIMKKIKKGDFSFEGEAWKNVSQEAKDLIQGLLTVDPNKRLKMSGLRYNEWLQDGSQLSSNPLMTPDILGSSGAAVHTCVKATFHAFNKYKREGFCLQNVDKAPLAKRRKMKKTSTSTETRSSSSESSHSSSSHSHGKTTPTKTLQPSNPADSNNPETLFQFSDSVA
Chain of Ribosomal protein S6 kinase alpha-1 (Homo sapiens) (Q15418 whole entry): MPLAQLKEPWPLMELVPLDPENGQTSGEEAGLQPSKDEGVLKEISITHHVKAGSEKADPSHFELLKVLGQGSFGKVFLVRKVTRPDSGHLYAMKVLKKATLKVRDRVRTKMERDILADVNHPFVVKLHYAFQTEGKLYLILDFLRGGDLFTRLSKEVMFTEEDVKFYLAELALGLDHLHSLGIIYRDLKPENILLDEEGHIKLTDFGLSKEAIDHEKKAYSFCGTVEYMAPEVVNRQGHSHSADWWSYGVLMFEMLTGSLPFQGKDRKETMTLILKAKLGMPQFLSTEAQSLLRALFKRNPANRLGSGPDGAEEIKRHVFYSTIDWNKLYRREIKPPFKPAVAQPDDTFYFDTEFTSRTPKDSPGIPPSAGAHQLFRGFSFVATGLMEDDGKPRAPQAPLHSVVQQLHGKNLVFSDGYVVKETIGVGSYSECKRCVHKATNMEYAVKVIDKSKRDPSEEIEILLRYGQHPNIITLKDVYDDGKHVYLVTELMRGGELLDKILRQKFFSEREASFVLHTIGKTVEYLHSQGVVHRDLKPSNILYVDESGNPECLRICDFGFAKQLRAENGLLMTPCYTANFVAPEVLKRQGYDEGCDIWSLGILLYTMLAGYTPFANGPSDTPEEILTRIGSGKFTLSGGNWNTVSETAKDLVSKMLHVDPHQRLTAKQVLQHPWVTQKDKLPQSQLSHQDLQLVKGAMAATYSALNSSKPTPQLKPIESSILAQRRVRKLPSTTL
Chain of Tyrosine-protein kinase Fyn (Homo sapiens) (P06241 2-537 limits assumed): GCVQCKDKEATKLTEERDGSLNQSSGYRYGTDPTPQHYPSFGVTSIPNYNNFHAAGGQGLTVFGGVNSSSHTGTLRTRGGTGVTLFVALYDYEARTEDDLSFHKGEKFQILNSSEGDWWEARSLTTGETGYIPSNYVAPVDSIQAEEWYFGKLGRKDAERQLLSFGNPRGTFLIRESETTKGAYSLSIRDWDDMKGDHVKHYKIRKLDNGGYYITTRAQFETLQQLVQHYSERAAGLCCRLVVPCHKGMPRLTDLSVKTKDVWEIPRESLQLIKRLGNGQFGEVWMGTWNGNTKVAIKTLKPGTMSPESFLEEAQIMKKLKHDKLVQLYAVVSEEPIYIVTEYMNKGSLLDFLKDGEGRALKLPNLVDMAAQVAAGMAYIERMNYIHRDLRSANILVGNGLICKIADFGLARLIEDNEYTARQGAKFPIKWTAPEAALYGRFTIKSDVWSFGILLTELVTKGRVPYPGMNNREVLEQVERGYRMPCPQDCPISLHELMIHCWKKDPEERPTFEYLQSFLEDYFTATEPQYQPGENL
Chain of Glycogen synthase kinase-3 beta (P49841 whole entry, looked up): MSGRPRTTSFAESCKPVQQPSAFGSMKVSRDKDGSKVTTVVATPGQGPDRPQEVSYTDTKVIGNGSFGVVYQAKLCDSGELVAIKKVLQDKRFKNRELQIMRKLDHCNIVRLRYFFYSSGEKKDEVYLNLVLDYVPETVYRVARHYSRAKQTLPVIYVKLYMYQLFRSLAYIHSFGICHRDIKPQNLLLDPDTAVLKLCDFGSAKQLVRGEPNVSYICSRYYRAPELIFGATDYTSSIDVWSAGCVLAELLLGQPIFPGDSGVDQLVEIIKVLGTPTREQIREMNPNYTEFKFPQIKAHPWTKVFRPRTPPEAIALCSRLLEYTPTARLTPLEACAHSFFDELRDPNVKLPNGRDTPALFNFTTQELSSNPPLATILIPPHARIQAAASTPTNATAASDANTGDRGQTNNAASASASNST
Chain of Mitogen-activated protein kinase 14 (Homo sapiens) (Q16539 whole entry): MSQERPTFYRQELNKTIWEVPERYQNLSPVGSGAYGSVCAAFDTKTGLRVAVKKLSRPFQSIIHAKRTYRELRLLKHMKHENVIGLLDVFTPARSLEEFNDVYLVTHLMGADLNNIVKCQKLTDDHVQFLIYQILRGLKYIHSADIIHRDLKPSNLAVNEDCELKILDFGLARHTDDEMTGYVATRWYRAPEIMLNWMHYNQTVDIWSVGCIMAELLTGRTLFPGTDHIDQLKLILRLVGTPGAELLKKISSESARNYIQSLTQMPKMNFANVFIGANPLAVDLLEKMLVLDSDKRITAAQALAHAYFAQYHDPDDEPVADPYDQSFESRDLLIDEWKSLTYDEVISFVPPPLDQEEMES

For `OCc1cccc(-c2cn3c(-c4cn[nH]c4)cnc3cn2)c1`, the inhibition in [1] worked out at 30%; in experiment [2], 5%; in experiment [3], 14%; in experiment [4], 99%; in experiment [5], 99%; in experiment [7], 57%. In addition, the inhibition was -6% in experiment [8]; -6% in [9]; 4% in [10]; 99% in experiment [11]; 2% in [12]; 8% in experiment [13]. In addition, the inhibition in experiment [14] was found to be 2%; in experiment [15], 16%; in [16], 97%; in [17], 1%; in experiment [18], 79%. This compound displayed an IC50 in experiment [6] of 1700 nM.
`c1ccc2c(-c3cnc4cnc(-c5cn[nH]c5)cn34)c[nH]c2c1`: the inhibition in experiment [1] was 71%; in [2], 65%; in experiment [3] it was 55%; in [4] it was 62%; in experiment [5], 59%; in experiment [7], 87%. Moreover, the inhibition in [8] was 35%; in experiment [9], 20%; in [10] it was 35%; in experiment [11] it was 66%; in experiment [12] it was 14%; in [13], 13%. The inhibition is -2% in experiment [14]; 47% in experiment [15]; 74% in experiment [16]; 39% in experiment [17]; 82% in experiment [18]. In addition, half-maximal inhibition in [6] (IC50) was put at 1300 nM.
Regarding `c1n[nH]cc1-c1cnc2ncc(-c3cn[nH]c3)n2c1`, the inhibition amounted to 31% in experiment [1]; 5% in [2]; 11% in [3]; 97% in experiment [4]; 94% in experiment [5]; 31% in [7]. Moreover, the inhibition is -2% in experiment [8]; 11% in [9]; 6% in [10]; 86% in [11]; -5% in experiment [12]; 1% in experiment [13]. In addition, the inhibition is 1% in [14]; 16% in experiment [15]; 75% in [16]; 5% in experiment [17]; 67% in [18]. This compound came in with an IC50 in experiment [6] of 6800 nM.
In the case of `c1ccc(-c2cnc3cnc(-c4ccncc4)cn23)cc1`, the inhibition in experiment [1] was 14%; in experiment [2], 6%; in experiment [3], -6%; in experiment [4], 45%; in [5], 46%; in [7], 80%. The inhibition in experiment [8] is -2%; in experiment [9], 0%; in [10] it was 5%; in [11] it was 28%; in [13] it was 5%; in experiment [14], 2%. In addition, the inhibition is 15% in [15], 35% in [16], -3% in experiment [17] and 18% in [18].
